This is an account of results in ChEMBL document CHEMBL3611980, “Design, synthesis of benzocoumarin-pyrimidine hybrids as novel class of antitubercular agents, their DNA cleavage and X-ray studies” (Eur J Med Chem, 2015).

Data set [1] has as its system Mycobacterium tuberculosis. Briefly: Antitubercular activity against Mycobacterium tuberculosis H37Rv ATCC 27294 at 6.25 ug/ml after 5 days by microplate Alamar Blue assay. Format: functional. Conditions: H37Rv ATCC 27294, 120 h.
Data set [2] has as its system Mycobacterium tuberculosis. Briefly: Antitubercular activity against Mycobacterium tuberculosis H37Rv ATCC 27294 after 5 days by microplate Alamar Blue assay. Format: functional. To be noted: H37Rv ATCC 27294, 120 h. (In general: Resazurin is reduced to fluorescent resorufin, in cell work by metabolically active cells.)
The nature of data set [3]: Cytotoxicity against African green monkey Vero cells assessed as cell survival at 10 times MIC after 72 hrs by MTT assay. Conditions: chlorocebus sabaeus, read-out: Survival. The class given is cell-based. For orientation: Tetrazolium dyes change colour on reduction, which living cells bring about.
The species entered for data set [4] is Bos taurus. Put plainly: Induction of DNA cleavage in calf thymus DNA at 10 ug after 2 hrs by agarose gel electrophoresis method.

Molecules are shown by their SMILES. Values after ≈ are worked out from the molar mass of the structure shown. Active and inactive are the calls of the source. No cut-off for these calls is given here.

Usually inhibition stands for the relative decrease from the control value, in per cent. Compound `O=c1oc2ccc3ccccc3c2cc1-c1cc(-c2ccccc2Cl)nc(Cc2ccc(F)cc2)n1` displayed an inhibition at 6.25 µg/mL in data set [1] of 75%.
For orientation: MIC means the lowest concentration that inhibits growth of the organism. In the case of `O=c1oc2ccc3ccccc3c2cc1-c1cc(-c2cccc(Cl)c2)nc(Cc2ccc(F)cc2)n1`, in data set [1], 6.25 µg/mL produced 93% inhibition. The same compound displayed a minimum inhibitory concentration (MIC) in data set [2] of 1.56 µg/mL (≈ 3.16 µM). Moreover, the viability at 72 h, 10 times MIC in data set [3] amounted to 75%. For the same compound, in data set [4], the outcome was Active.
As to `COc1ccc(-c2cc(-c3cc4c(ccc5ccccc54)oc3=O)nc(Cc3ccc(F)cc3)n2)cc1`, the inhibition at 6.25 µg/mL in data set [1] stood at 100%. This compound also displayed a minimal inhibitory concentration (MIC) in data set [2] of 0.05 µg/mL (≈ 0.102 µM). Also, in data set [3], the viability at 72 h, 10 times MIC is 97%. Besides, the result in data set [4] was Active.
`COc1cccc(-c2cc(-c3cc4c(ccc5ccccc54)oc3=O)nc(Cc3ccc(F)cc3)n2)c1` had an inhibition at 6.25 µg/mL in data set [1] of 100%. In addition, the lowest concentration to inhibit growth in data set [2] (MIC) was 0.19 µg/mL (≈ 0.389 µM). In addition, the viability at 72 h, 10 times MIC in data set [3] was found to be 93%.
In turn, `O=c1oc2ccc3ccccc3c2cc1-c1cc(-c2ccc(Cl)cc2)nc(Cc2ccc(F)cc2)n1` registered an inhibition at 6.25 µg/mL in data set [1] of 96%. Besides, the MIC in data set [2] came out at 1.21 µg/mL (≈ 2.45 µM). For the same compound, the viability at 72 h, 10 times MIC in data set [3] was 79%.
For `Cc1ccccc1-c1cc(-c2cc3c(ccc4ccccc43)oc2=O)nc(Cc2ccc(F)cc2)n1`, the inhibition at 6.25 µg/mL in data set [1] amounted to 73%.
Compound `Cc1cccc(-c2cc(-c3cc4c(ccc5ccccc54)oc3=O)nc(Cc3ccc(F)cc3)n2)c1` displayed an inhibition at 6.25 µg/mL in data set [1] of 76%.
`O=c1oc2ccc3ccccc3c2cc1-c1cc(-c2ccccc2[N+](=O)[O-])nc(Cc2ccc(F)cc2)n1` gave an inhibition at 6.25 µg/mL in data set [1] of 90%. Besides, the MIC in data set [2] came to 6.25 µg/mL (≈ 12.4 µM). Also, the viability at 72 h, 10 times MIC in data set [3] was 17%.
In the same order, the values of `COc1ccccc1-c1cc(-c2cc3c(ccc4ccccc43)oc2=O)nc(Cc2ccc(F)cc2)n1` are 98%, 0.78 µg/mL (≈ 1.6 µM) and 91%.
In data set [1], `O=c1oc2ccc3ccccc3c2cc1-c1cc(-c2ccccc2Br)nc(Cc2ccc(F)cc2)n1` had an inhibition at 6.25 µg/mL of 77%.
With `NNC(=O)c1ccncc1` [ISONIAZID], the inhibition at 6.25 µg/mL in data set [1] is 100%. This compound also gave an MIC in data set [2] of 0.02 µg/mL (≈ 0.146 µM). Moreover, the viability at 72 h, 10 times MIC in data set [3] turned out to be 100%.
In data set [1], `O=c1oc2ccc3ccccc3c2cc1-c1cc(-c2cccc([N+](=O)[O-])c2)nc(Cc2ccc(F)cc2)n1` registered an inhibition at 6.25 µg/mL of 91%. In addition, 3.12 µg/mL (≈ 6.2 µM) was the least that counted as inhibitory in data set [2] (MIC). In addition, the viability at 72 h, 10 times MIC in data set [3] was found to be 26%. In addition, the result in data set [4] was Active.
Compound `O=c1oc2ccc3ccccc3c2cc1-c1cc(-c2ccc(Br)cc2)nc(Cc2ccc(F)cc2)n1` yielded an inhibition at 6.25 µg/mL in data set [1] of 96%. In data set [2], this compound registered an MIC of 1.56 µg/mL (≈ 2.9 µM). The viability at 72 h, 10 times MIC in data set [3] came out at 72%. Also, in data set [4], the result was Active.
In the case of `Cc1ccc(-c2cc(-c3cc4c(ccc5ccccc54)oc3=O)nc(Cc3ccc(F)cc3)n2)cc1`, the inhibition at 6.25 µg/mL in data set [1] was found to be 81%.
As for `O=c1oc2ccc3ccccc3c2cc1-c1cc(-c2cccc(Br)c2)nc(Cc2ccc(F)cc2)n1`, testing at 6.25 µg/mL in data set [1] gave an inhibition of 93%. This compound came in with a minimal inhibitory concentration (MIC) in data set [2] of 2.81 µg/mL (≈ 5.23 µM). Moreover, the viability at 72 h, 10 times MIC in data set [3] was found to be 64%.
In the same order, the values of `O=c1oc2ccc3ccccc3c2cc1-c1cc(-c2ccc([N+](=O)[O-])cc2)nc(Cc2ccc(F)cc2)n1` are 95%, 2.81 µg/mL (≈ 5.58 µM) and 39%.
